US20220218801A1, “COMBINATION GMCI AND ATRI CANCER TREATMENT” (Candel Therapeutics, Inc., priority 2019, published 2022)

Assays:
glioma cell line (GL261) [1] = test: double-stranded DNA breaks by H2AX Ser139 staining (confocal microscopy); assay type: cell-based; conditions: 6 hours after addition of ATRi (IC50 concentration) and/or GCV 5 μg/ml, compared with untreated cells
Method: In another experiment, the frequency of double-stranded DNA breaks in glioma cells treated with GMCI, ATRi, or the combination. The formation of double-stranded DNA breaks was examined by staining the cells for H2AX-Ser139 as previously performed (Speranza et al. 2017).
At the start of the study (Day 0), glioma cell line (GL261; NCI-Frederick Cancer Research Tumor Repository, Frederick, Md.) is plated at a density of 12,500 cells per well of a 24 well plate containing glass coverslips. For the samples to which GMCI is administered, AdV-tk vector is added at a concentration of approximately 1.25×10^6 vp/ml (100 MOI). Starting on Day 1, to the samples being treated with GMCI, ganciclovir is added to a concentration of 5 μg/ml. In samples exposed to ATRi, starting at Day 1 AZD6738 was added at a concentration to the IC50 concentration of the drug. either in combination with GMCI or alone, as indicated. At a timepoint 6 hours after addition of the ATRi and/or GCV, the cells were fixed in 4% paraformaldehyde in phosphate buffered saline. After blocking with 5% donkey serum/0.5% Tween 20, 0.02% TX100/PBS for 1 hour at room temperature (RT), cells were washed 3 times with washing buffer (0.5% Tween 20, 0.02% TX100/PBS) and stained with H2AX Ser139 antibody (1:100). The next day the samples were washed and incubated for 2 hours with a fluorescently-tagged secondary antibody plus Hoechst 33342. […]

glioma cell line (GL261) [2] = test: glioma cell viability assay (Presto Blue, fluorescence); assay type: cell-based
Method: The combination of GMCI and ATRi (AZD6738) is examined for anti-cancer activity. A schematic of an experimental design to test the effect of combining of GMCI and ATR inhibitor combination on glioma cells is illustrated in FIG. 1. At the start of the study (Day 0), a glioma cell line (GL261; NCI-Frederick Cancer Research Tumor Repository, Frederick, Md.) is plated at a density of 5000 cells per well. For the samples on which GMCI is administered, on the following day (Day 1) AdV-tk vector is added at a concentration of approximately […] (100 MOI). Starting on Day 2, to the samples being treated with GMCI, ganciclovir is added to a concentration of 5 μg/ml. […] At Day 4, cell viability is assayed by the addition of a vial dye such as Presto Blue assay (Life Technologies) and quantified by fluorescence spectrometry.
Synergism was analyzed by the Combination Index (CI) calculation with the formula of Chou-Talalay (Chou 2010; Ting-Chao Chou 1984). CI values above 1.00 indicate antagonistic effect of combination agents, a CI of 1.00 indicates an additive effect, and CI values below 1.00 indicate synergistic effect.

For `C[C@@H]1COCCN1c1cc(C2([S@](C)(=N)=O)CC2)nc(-c2cc[nH]c3nccc2-3)n1` [AZD6738], the “double-stranded DNA breaks / H2AX(Ser139) staining” value (glioma cell line (GL261) [1]) was “Double-stranded DNA breaks occur”, the “double-stranded DNA breaks / H2AX(Ser139) staining” value (glioma cell line (GL261) [1]; listed as ATRi) was “large increase in H2AX staining” and the “cell viability (fluorescence normalized to no treatment)” value (glioma cell line (GL261) [2]; GL261, single agents, AZD6738 at IC50 (1 μM) or ½ IC50 (0.5 μM) from Day 2, GMCI = AdV-tk 100 MOI + ganciclovir 5 μg/ml, read at Day 4) was “cytotoxic activity”. It also gave an IC50 (glioma cell line (GL261) [2]; Mus musculus, GL261 glioma cells, read-out: IC50 concentration) of 1000 nM.
